Patent US10189843B2, “Fused pyrazole derivative having autotaxin inhibitory activity” (The University of Tokyo, priority 2014, dated 2019)

The compounds below were run against T1, Human autotaxin enzyme (Homo sapiens, UniProt Q13822) (assay: Evaluation of autotaxin inhibitor, Method C (18:0 Lyso PC substrate, choline assay, Resorufin fluorescence)). Conditions: Method C (Test Example 3), read-out: Inhibitory activity (enzyme inhibitory activity, IC50).
T1 construct: purchased R&D System
Assay type: biochemical
Description: Test Example 3 (Method C) Evaluation of Autotaxin Inhibitor
Solution B containing 100 mM Tris-HCl buffer (pH7.5), 150 mM NaCl, 5 mM MgCl2, and 0.05% Triton X-100 was prepared. Human autotaxin enzyme (purchased from R&D System) was diluted with Solution B, and 2.5 μl of which was added to a solution of test compound in DMSO. Furthermore, 2.5 μl of 200 μM 18:0 Lyso PC (purchased from Avanti Polar Lipids) in Solution B was added and allowed to react at room temperature for 2 hours. After completion of the reaction, 15 μl of the coline assay reagent (100 mM Tris-HCl buffer (pH7.5), 5 mM MgCl2, 77 μg/ml coline oxidase, 10 μg/ml peroxydase, 25 μM 10-acetyl-3,7-dihydroxyphenoxazine, and excess autotaxin inhibitor) was added and allowed to react at room temperature for 20 minutes. The fluorescent dye Resorufin, which was produced by the reaction, was detected. The fluorescence was detected using ViewLux (PerkinElmer, Inc.) with a excitation wavelength of 531 nm and a fluorescence wavelength of 598 nm.
The percent inhibition of the test compound was calculated by assuming the sample with no test compound as 0% inhibition and the sample with no enzyme as 100% inhibition, and the percent inhibitions at different concentrations of the test compound were plotted to obtain a concentration-dependent curve.

Row | IC50 [nM] | Structure (SMILES)
1 | ≥ 1000 | CCCCCC1CNC(=O)c2cc(-c3ccc(Cl)cc3)nn21 (stereo not shown) [Compound I-0001]
2 | 10 to 100 | CCCCCC1CN(CC(=O)OCC)C(=O)c2cc(-c3ccc(Cl)cc3)nn21 (stereo not shown) [Compound I-0002]
3 | ≥ 1000 | CCCCCC1CN(CC(=O)O)C(=O)c2cc(-c3ccc(Cl)cc3)nn21 (stereo not shown) [Compound I-0003]
4 | 10 to 100 | CCCCCC1CN(CC(=O)N2CCC(C(=O)OCC)CC2)C(=O)c2cc(-c3ccc(Cl)cc3)nn21 (stereo not shown) [Compound I-0004]
5 | 100 to 1000 | CCCCCC1CN(CNC(=O)OC(C)(C)C)C(=O)c2cc(-c3ccc(Cl)cc3)nn21 (stereo not shown) [Compound I-0005]
6 | 100 to 1000 | CCCCCC1CN(CCO)C(=O)c2cc(-c3ccc(Cl)cc3)nn21 (stereo not shown) [Compound I-0006]
7 | < 10 | CCCCCC1CN(CC(=O)N2CCC(C(=O)O)CC2)C(=O)c2cc(-c3ccc(Cl)cc3)nn21 (stereo not shown) [Compound I-0007]
8 | 10 to 100 | CCCCCC1CN(CNC(C)=O)C(=O)c2cc(-c3ccc(Cl)cc3)nn21 (stereo not shown) [Compound I-0008]
9 | 100 to 1000 | CCOC(=O)CN1C(=O)c2cc(-c3ccc(Cl)cc3)nn2[C@H]2CCC[C@H]21 [Compound I-0009]
10 | ≥ 1000 | CCOC(=O)CN1C(=O)c2cc(-c3ccc(Cl)cc3)nn2[C@@H]2CCC[C@@H]21 [Compound I-0010]
11 | ≥ 1000 | CCOC(=O)C1CCN(C(=O)CN2C(=O)c3cc(-c4ccc(Cl)cc4)nn3[C@@H]3CCC[C@@H]32)CC1 [Compound I-0011]
12 | 100 to 1000 | O=C(O)C1CCN(C(=O)CN2C(=O)c3cc(-c4ccc(Cl)cc4)nn3[C@H]3CCC[C@H]32)CC1 [Compound I-0012]
13 | ≥ 1000 | O=C(O)C1CCN(C(=O)CN2C(=O)c3cc(-c4ccc(Cl)cc4)nn3[C@@H]3CCC[C@@H]32)CC1 [Compound I-0013]
14 | ≥ 1000 | CCOC(=O)CN1CC(C)(C)n2nc(-c3ccc(Cl)cc3)cc2C1=O [Compound I-0014]
15 | ≥ 1000 | CCOC(=O)C1CCN(C(=O)CN2CC(C)(C)n3nc(-c4ccc(Cl)cc4)cc3C2=O)CC1 [Compound I-0015]
16 | ≥ 1000 | CC1(C)CN(CC(=O)N2CCC(C(=O)O)CC2)C(=O)c2cc(-c3ccc(Cl)cc3)nn21 [Compound I-0016]
17 | ≥ 1000 | CCOC(=O)CN1CC(CC)n2nc(-c3ccc(Cl)cc3)cc2C1=O (stereo not shown) [Compound I-0017]
18 | ≥ 1000 | CCOC(=O)CN1CC(C2CC2)n2nc(-c3ccc(Cl)cc3)cc2C1=O (stereo not shown) [Compound I-0018]
19 | ≥ 1000 | CCOC(=O)CN1C[C@H](C)n2nc(-c3ccc(Cl)cc3)cc2C1=O [Compound I-0019]
20 | ≥ 1000 | CCOC(=O)CN1C[C@@H](C)n2nc(-c3ccc(Cl)cc3)cc2C1=O [Compound I-0020]
21 | ≥ 1000 | CCOC(=O)CN1C[C@H](c2ccccc2)n2nc(-c3ccc(Cl)cc3)cc2C1=O [Compound I-0021]
22 | ≥ 1000 | CCOC(=O)CN1CC(C(C)C)n2nc(-c3ccc(Cl)cc3)cc2C1=O (stereo not shown) [Compound I-0022]
23 | ≥ 1000 | CCOC(=O)CN1CC(CC(F)(F)F)n2nc(-c3ccc(Cl)cc3)cc2C1=O (stereo not shown) [Compound I-0023]

Row | IC50 [nM] | Structure (SMILES)
24 | ≥ 1000 | O=C1NCC(COCc2ccccc2)n2nc(-c3ccc(Cl)cc3)cc21 (stereo not shown) [Compound I-0024]
25 | 100 to 1000 | CCOC(=O)CN1CC(Cc2ccccc2)n2nc(-c3ccc(Cl)cc3)cc2C1=O (stereo not shown) [Compound I-0025]
26 | ≥ 1000 | CCOC(=O)CN1CC(COCc2ccccc2)n2nc(-c3ccc(Cl)cc3)cc2C1=O (stereo not shown) [Compound I-0026]
27 | ≥ 1000 | CCOC(=O)CN1C(=O)c2cc(-c3ccc(Cl)cc3)nn2C2COCC21 (stereo not shown) [Compound I-0027]
28 | ≥ 1000 | O=C(O)C1CCN(C(=O)CN2C(=O)c3cc(-c4ccc(Cl)cc4)nn3C3COCC32)CC1 (stereo not shown) [Compound I-0028]
29 | ≥ 1000 | O=C(O)C1CN(C(=O)CN2C(=O)c3cc(-c4ccc(Cl)cc4)nn3C3COCC32)C1 (stereo not shown) [Compound I-0029]
30 | ≥ 1000 | CCCCCC1CN(CC(=O)N2CCCCC2Cc2ccccc2)C(=O)c2cc(-c3ccc(Cl)cc3)nn21 (stereo not shown) [Compound I-0030]
31 | ≥ 1000 | CCCCCCC1CCCN1C(=O)CN1CC(CCCCC)n2nc(-c3ccc(Cl)cc3)cc2C1=O (stereo not shown) [Compound I-0031]
32 | 100 to 1000 | CCCCCC1CN(CC(=O)N2CCC(Cc3ccccc3)C2)C(=O)c2cc(-c3ccc(Cl)cc3)nn21 (stereo not shown) [Compound I-0032]
33 | ≥ 1000 | CCCCCC1CN(CC(=O)N2CCC(C(N)=O)CC2)C(=O)c2cc(-c3ccc(Cl)cc3)nn21 (stereo not shown) [Compound I-0033]
34 | ≥ 1000 | CCCCCC1CN(CC(=O)N2CCC(N(C)C)C2)C(=O)c2cc(-c3ccc(Cl)cc3)nn21 (stereo not shown) [Compound I-0034]
35 | 100 to 1000 | CCCCCC1CN(CC(=O)N2CCC(O)C2)C(=O)c2cc(-c3ccc(Cl)cc3)nn21 (stereo not shown) [Compound I-0035]
36 | 10 to 100 | CCCCCC1CN(CC(=O)N2CCC(c3ccccc3)CC2)C(=O)c2cc(-c3ccc(Cl)cc3)nn21 (stereo not shown) [Compound I-0036]
37 | 10 to 100 | CCCCCC1CN(CC(=O)N2CCNC(=O)C2)C(=O)c2cc(-c3ccc(Cl)cc3)nn21 (stereo not shown) [Compound I-0037]
38 | 100 to 1000 | CCCCCC1CN(CC(=O)NCC(=O)N(C)C)C(=O)c2cc(-c3ccc(Cl)cc3)nn21 (stereo not shown) [Compound I-0038]
39 | 100 to 1000 | CCCCCC1CN(CC(=O)N2CCC(CC(C)C)C2)C(=O)c2cc(-c3ccc(Cl)cc3)nn21 (stereo not shown) [Compound I-0039]
40 | 100 to 1000 | CCCCCC1CN(CC(=O)N2CCCC2CO)C(=O)c2cc(-c3ccc(Cl)cc3)nn21 (stereo not shown) [Compound I-0040]
41 | 10 to 100 | CCCCCC1CN(CC(=O)N2CCCCC2C(=O)N2CCCCC2)C(=O)c2cc(-c3ccc(Cl)cc3)nn21 (stereo not shown) [Compound I-0041]
42 | 100 to 1000 | CCCCCC1CN(CC(=O)Nc2ccccc2C(=O)O)C(=O)c2cc(-c3ccc(Cl)cc3)nn21 (stereo not shown) [Compound I-0042]
43 | 10 to 100 | CCCCCC1CN(CC(=O)N(C)CC(=O)O)C(=O)c2cc(-c3ccc(Cl)cc3)nn21 (stereo not shown) [Compound I-0043]
44 | 10 to 100 | CCCCCC1CN(CC(=O)NCCC(=O)O)C(=O)c2cc(-c3ccc(Cl)cc3)nn21 (stereo not shown) [Compound I-0044]
45 | 100 to 1000 | CCCCCC1CN(CC(=O)NCc2ccc(C(=O)O)cc2)C(=O)c2cc(-c3ccc(Cl)cc3)nn21 (stereo not shown) [Compound I-0045]
46 | 100 to 1000 | CCCCCC1CN(CC(=O)NCCCCCC(=O)O)C(=O)c2cc(-c3ccc(Cl)cc3)nn21 (stereo not shown) [Compound I-0046]

Row | IC50 [nM] | Structure (SMILES)
47 | 10 to 100 | CCCCCC1CN(CC(=O)NCCCC(=O)O)C(=O)c2cc(-c3ccc(Cl)cc3)nn21 (stereo not shown) [Compound I-0047]
48 | 10 to 100 | CCCCCC1CN(CC(=O)N2CCC(CC(=O)O)CC2)C(=O)c2cc(-c3ccc(Cl)cc3)nn21 (stereo not shown) [Compound I-0048]
49 | 10 to 100 | CCCCCC1CN(CC(=O)Nc2cccc(C(=O)O)c2)C(=O)c2cc(-c3ccc(Cl)cc3)nn21 (stereo not shown) [Compound I-0049]
50 | 10 to 100 | CCCCCC1CN(CC(=O)N2CCCC(C(=O)O)C2)C(=O)c2cc(-c3ccc(Cl)cc3)nn21 (stereo not shown) [Compound I-0050]
51 | 100 to 1000 | CCCCCC1CN(CC(=O)NC2CCC[C@@H]2C(=O)OCC)C(=O)c2cc(-c3ccc(Cl)cc3)nn21 (stereo partly shown) [Compound I-0051]
52 | < 10 | CCCCCC1CN(CC(=O)N2CCCCC2C(=O)O)C(=O)c2cc(-c3ccc(Cl)cc3)nn21 (stereo not shown) [Compound I-0052]
53 | 10 to 100 | CCCCCC1CN(CC(=O)N2CCCC(CC(=O)O)C2)C(=O)c2cc(-c3ccc(Cl)cc3)nn21 (stereo not shown) [Compound I-0053]
54 | 100 to 1000 | CCCCCC1CN(CC(=O)NC[C@H]2CC[C@H](C(=O)O)CC2)C(=O)c2cc(-c3ccc(Cl)cc3)nn21 (stereo partly shown) [Compound I-0054]
55 | < 10 | CCCCCC1CN(CC(=O)NC(Cc2ccccc2)C(=O)O)C(=O)c2cc(-c3ccc(Cl)cc3)nn21 (stereo not shown) [Compound I-0055]
56 | 10 to 100 | CCCCCC1CN(CC(=O)Nc2cccc(CC(=O)O)c2)C(=O)c2cc(-c3ccc(Cl)cc3)nn21 (stereo not shown) [Compound I-0056]
57 | 100 to 1000 | CCCCCC1CN(CC(=O)NCCCCCCC(=O)O)C(=O)c2cc(-c3ccc(Cl)cc3)nn21 (stereo not shown) [Compound I-0057]
58 | 100 to 1000 | CCCCCC1CN(CC(=O)Nc2ccc(CCC(=O)O)cc2)C(=O)c2cc(-c3ccc(Cl)cc3)nn21 (stereo not shown) [Compound I-0058]
59 | 10 to 100 | CCCCCC1CN(CC(=O)NCC(=O)O)C(=O)c2cc(-c3ccc(Cl)cc3)nn21 (stereo not shown) [Compound I-0059]
60 | 100 to 1000 | CCCCCC1CN(CC(=O)NC2CCC(C(=O)O)CC2)C(=O)c2cc(-c3ccc(Cl)cc3)nn21 (stereo not shown) [Compound I-0060]
61 | 10 to 100 | CCCCCC1CN(CC(=O)NCCCCC(=O)O)C(=O)c2cc(-c3ccc(Cl)cc3)nn21 (stereo not shown) [Compound I-0061]
62 | < 10 | CCCCCC1CN(CC(=O)NC(CCC)C(=O)O)C(=O)c2cc(-c3ccc(Cl)cc3)nn21 (stereo not shown) [Compound I-0062]
63 | 10 to 100 | CCCCCC1CN(CC(=O)N2C[C@@H]3C(C(=O)O)[C@@H]3C2)C(=O)c2cc(-c3ccc(Cl)cc3)nn21 (stereo partly shown) [Compound I-0063]
64 | < 10 | CCCCCC1CN(CC(=O)N[C@@H](C(=O)O)c2ccccc2)C(=O)c2cc(-c3ccc(Cl)cc3)nn21 (stereo partly shown) [Compound I-0064]
65 | 10 to 100 | CCCCCC1CN(CC(=O)N2CCCC2C(=O)O)C(=O)c2cc(-c3ccc(Cl)cc3)nn21 (stereo not shown) [Compound I-0065]
66 | 10 to 100 | CCCCCC1CN(CC(=O)N2CCC(C(=O)O)C2)C(=O)c2cc(-c3ccc(Cl)cc3)nn21 (stereo not shown) [Compound I-0066]
67 | 100 to 1000 | CCCCCC1CN(CC(=O)Nc2ccccc2CC(=O)O)C(=O)c2cc(-c3ccc(Cl)cc3)nn21 (stereo not shown) [Compound I-0067]
